Measurements from patent US20240408096A1, “DOSING REGIMENS FOR ORAL ALK2 KINASE INHIBITORS” (BioCryst Pharmaceuticals, Inc., priority 2020, published 2024).

What was measured:
HO bone formation = test: mouse model of HO bone formation; type: in vivo; conditions: dosing for 21 days
CYP2C9 = CYP2C9 (Homo sapiens, UniProt P11712); test: CYP inhibition in vitro; type: in vitro ADME
cytochrome P450 (CYP)1A2 = molecular target: T1, cytochrome P450 (CYP)1A2 (Homo sapiens, UniProt P05177); test: CYP inhibition in vitro; type: in vitro ADME
T1 sequence (P05177 1-516): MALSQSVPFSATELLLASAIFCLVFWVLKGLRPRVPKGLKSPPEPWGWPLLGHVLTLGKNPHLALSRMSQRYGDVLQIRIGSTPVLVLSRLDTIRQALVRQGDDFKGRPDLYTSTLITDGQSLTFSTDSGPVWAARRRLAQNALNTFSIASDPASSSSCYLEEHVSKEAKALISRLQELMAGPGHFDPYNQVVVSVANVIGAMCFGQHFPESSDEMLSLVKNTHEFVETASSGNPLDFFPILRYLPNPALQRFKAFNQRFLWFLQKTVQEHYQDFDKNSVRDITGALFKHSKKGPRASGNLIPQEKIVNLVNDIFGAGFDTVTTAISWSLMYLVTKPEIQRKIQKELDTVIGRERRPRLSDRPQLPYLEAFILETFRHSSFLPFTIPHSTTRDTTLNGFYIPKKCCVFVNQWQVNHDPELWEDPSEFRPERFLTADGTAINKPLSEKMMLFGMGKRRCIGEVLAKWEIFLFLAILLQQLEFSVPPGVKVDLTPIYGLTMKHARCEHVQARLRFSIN

CYP3A = test: CYP inhibition in vitro; type: in vitro ADME
CYP2B6 = molecular target: T2, CYP2B6 (Homo sapiens, UniProt P20813); test: CYP inhibition in vitro; type: in vitro ADME
T2 sequence (P20813 1-491): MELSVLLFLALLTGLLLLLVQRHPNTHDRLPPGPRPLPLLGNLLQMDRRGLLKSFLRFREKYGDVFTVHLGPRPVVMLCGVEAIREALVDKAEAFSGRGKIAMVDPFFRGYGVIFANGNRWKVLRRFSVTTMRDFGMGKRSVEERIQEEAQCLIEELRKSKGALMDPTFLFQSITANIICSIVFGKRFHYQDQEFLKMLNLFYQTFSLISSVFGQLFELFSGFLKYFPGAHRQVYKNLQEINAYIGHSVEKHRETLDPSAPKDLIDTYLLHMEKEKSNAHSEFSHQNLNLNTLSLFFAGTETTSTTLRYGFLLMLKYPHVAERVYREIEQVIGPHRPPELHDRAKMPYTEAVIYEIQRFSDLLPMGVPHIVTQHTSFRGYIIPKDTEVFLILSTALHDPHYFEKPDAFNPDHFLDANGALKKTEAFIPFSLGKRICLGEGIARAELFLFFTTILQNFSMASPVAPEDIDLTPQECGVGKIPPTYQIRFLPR

[1] = metabolism by liver S9 fraction; type: in vitro ADME; conditions: animal and human liver S9 fraction
CYP2C8 = molecular target: T3, CYP2C8 (Homo sapiens, UniProt P10632); test: CYP inhibition in vitro; type: in vitro ADME
T3 sequence (P10632 1-490): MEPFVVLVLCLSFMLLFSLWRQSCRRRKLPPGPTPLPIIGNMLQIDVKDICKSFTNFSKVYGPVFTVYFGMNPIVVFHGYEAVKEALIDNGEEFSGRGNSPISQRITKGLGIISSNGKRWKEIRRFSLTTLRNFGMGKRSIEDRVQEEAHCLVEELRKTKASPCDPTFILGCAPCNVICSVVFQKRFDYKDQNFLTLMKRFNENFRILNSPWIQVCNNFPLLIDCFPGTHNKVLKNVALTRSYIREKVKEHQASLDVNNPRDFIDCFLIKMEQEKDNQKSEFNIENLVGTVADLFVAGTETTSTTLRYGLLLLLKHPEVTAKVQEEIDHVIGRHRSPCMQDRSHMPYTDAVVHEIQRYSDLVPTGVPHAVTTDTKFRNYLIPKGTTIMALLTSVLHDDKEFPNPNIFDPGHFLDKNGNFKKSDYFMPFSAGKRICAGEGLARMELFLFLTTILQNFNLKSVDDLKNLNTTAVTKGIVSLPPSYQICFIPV

[2] = nonclinical PK / toxicokinetic assessments; type: in vivo
CYP2E1 = CYP2E1 (Homo sapiens, UniProt P05181); test: CYP inhibition in vitro; type: in vitro ADME
CYP2E1, sequence (P05181 whole entry): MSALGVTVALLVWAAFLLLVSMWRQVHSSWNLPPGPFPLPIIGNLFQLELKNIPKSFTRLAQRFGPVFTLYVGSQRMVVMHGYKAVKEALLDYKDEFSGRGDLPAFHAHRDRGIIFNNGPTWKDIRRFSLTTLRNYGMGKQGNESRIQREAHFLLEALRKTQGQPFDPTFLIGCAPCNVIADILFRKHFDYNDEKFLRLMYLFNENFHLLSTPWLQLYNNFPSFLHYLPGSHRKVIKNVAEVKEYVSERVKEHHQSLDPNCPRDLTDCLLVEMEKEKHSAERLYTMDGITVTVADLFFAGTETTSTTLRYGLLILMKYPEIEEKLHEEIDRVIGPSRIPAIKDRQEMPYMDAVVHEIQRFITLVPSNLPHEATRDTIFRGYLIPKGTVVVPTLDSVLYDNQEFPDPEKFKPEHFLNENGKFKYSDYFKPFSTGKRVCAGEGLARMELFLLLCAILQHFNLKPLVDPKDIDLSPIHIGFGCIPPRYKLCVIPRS

[3] = tested on: G-protein coupled receptor (GPCRs) related kinases; test: off-target screening study
[4] = in vitro genotoxicity: numerical chromosomal aberrations; type: cell-based
[5] = rat micronucleus-comet genotoxicity assays; conditions: in vivo
CYP2A6 = molecular target: T4, CYP2A6 (Homo sapiens, UniProt P11509); test: CYP inhibition in vitro; type: in vitro ADME
T4 sequence (P11509 1-494): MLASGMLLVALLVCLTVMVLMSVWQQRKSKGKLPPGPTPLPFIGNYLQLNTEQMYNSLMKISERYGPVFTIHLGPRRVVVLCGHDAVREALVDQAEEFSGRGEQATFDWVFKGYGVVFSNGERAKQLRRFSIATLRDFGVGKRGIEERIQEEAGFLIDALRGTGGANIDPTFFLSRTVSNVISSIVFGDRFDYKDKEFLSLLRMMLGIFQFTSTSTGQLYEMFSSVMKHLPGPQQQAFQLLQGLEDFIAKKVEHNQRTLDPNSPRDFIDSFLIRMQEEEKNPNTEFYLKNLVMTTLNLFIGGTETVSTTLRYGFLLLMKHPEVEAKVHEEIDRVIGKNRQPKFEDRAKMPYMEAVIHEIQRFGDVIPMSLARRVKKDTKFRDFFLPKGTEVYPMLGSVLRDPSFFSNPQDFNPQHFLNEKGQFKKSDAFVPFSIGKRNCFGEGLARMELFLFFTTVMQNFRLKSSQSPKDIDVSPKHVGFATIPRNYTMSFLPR

CYP3A4 = CYP3A4 (Homo sapiens, UniProt P08684); test: CYP inhibition in vitro; type: in vitro ADME
CYP3A4, sequence (P08684 whole entry): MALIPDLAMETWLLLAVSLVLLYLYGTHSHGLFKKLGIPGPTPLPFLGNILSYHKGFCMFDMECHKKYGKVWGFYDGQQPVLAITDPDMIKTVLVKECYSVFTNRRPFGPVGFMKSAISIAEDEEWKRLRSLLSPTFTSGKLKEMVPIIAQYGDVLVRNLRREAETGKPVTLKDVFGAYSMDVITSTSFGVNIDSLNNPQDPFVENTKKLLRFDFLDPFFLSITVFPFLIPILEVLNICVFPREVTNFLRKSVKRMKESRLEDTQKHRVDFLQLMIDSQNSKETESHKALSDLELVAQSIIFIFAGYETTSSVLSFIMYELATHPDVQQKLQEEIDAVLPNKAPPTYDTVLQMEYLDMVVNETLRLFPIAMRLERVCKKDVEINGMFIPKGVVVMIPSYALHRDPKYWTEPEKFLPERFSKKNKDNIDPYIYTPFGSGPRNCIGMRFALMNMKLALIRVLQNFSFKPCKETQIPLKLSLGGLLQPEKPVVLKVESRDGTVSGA

CYP2C9, sequence (P11712 whole entry): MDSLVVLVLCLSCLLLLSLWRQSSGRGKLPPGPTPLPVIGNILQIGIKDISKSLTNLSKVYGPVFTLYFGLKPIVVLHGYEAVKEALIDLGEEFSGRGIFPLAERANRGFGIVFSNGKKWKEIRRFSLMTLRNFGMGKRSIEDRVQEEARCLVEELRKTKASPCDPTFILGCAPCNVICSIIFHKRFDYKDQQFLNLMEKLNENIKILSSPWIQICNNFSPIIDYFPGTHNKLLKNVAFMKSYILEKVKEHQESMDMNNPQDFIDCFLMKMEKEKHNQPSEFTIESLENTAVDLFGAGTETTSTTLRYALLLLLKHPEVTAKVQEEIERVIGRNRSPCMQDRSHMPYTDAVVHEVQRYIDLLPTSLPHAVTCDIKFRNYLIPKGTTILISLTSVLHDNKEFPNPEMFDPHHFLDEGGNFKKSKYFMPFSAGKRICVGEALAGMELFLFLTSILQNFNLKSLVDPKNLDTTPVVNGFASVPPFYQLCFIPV

- CYP2C9 inhibition (CYP2C9): is an inhibitor
- CYP1A2 inhibition (cytochrome P450 (CYP)1A2): not an inhibitor
- CYP3A inhibition (CYP3A): not an inhibitor
- CYP2B6 inhibition (CYP2B6): not an inhibitor
- CYP2C8 inhibition (CYP2C8): is an inhibitor
- CYP2E1 inhibition (CYP2E1): not an inhibitor
- off-target effects [3]: minimal off-target effects
- CYP2A6 inhibition (CYP2A6): not an inhibitor
- CYP3A4 inhibition (CYP3A4): is an inhibitor
SMILES: COc1cc(-n2cnc(Nc3nc(N4CCC[C@H]4C(N)=O)nc4sccc34)c2)cc(OC)c1OC.O=C(O)CC(O)(CC(=O)O)C(=O)O [Compound A]
- new HO bone formation (HO bone formation): significant reduction in new HO bone formation
- metabolism / human-specific metabolites [1]: metabolized by animal and human liver S9 fraction with no apparent human-specific metabolites
- oral bioavailability ([2]; nonclinical PK studies): orally bioavailable
- accumulation with repeated dosing ([2]; repeated dosing up to 28 days, toxicokinetic assessments): do not accumulate
- induction of numerical chromosomal aberrations [4]: negative
- micronucleus-comet genotoxicity [5]: negative
